# Results from patent US8440646B1 (priority 2006, dated 2013).
# Where two headings read alike, the source gives them in different places.
# What was measured:
# protein synthesis = conditions: cited from earlier work
# [1] = system: Peptidoglycan synthesis of S. aureus RN450; assay: microbe, parasite or virus in culture; assay type: cell-based; conditions: for IC50 / IC90: Staphylococcus aureus; for IC50: read-out: Peptidoglycan synthesis IC50; for IC90: read-out: Peptidoglycan synthesis IC90
# S. pneumoniae 700905 [2] = assay: microbe, parasite or virus in culture; assay type: cell-based; conditions: Streptococcus pneumoniae
# S. pneumoniae 157E [3] = assay: microbe, parasite or virus in culture; assay type: cell-based; conditions: Streptococcus pneumoniae
# S. aureus RN450 = assay: microbe, parasite or virus in culture; assay type: cell-based; conditions: Staphylococcus aureus
# [4] = system: Protein synthesis of S. aureus RN450; assay: microbe, parasite or virus in culture; assay type: cell-based; conditions: for IC50 / IC90: Staphylococcus aureus; for IC50: read-out: Protein synthesis IC50; for IC90: read-out: Protein synthesis IC90
# S. aureus MRSA5 = assay: microbe, parasite or virus in culture; assay type: cell-based; conditions: Staphylococcus aureus
# E. faecium 494 = assay: microbe, parasite or virus in culture; assay type: cell-based; conditions: Enterococcus faecium
# CHO-K1 = conditions: Chinese hamster
# B. anthracis V770 = assay: microbe, parasite or virus in culture; assay type: cell-based; conditions: Bacillus anthracis
# B. anthracis Ame = assay: microbe, parasite or virus in culture; assay type: cell-based; conditions: Bacillus anthracis
# COS-1 = conditions: African green monkey
# B. anthracis Sterne = assay: microbe, parasite or virus in culture; assay type: cell-based; conditions: Bacillus anthracis
# E. faecalis 29212 = assay: microbe, parasite or virus in culture; assay type: cell-based; conditions: Enterococcus faecalis
# B. anthracis Vollum1B = assay: microbe, parasite or virus in culture; assay type: cell-based; conditions: Bacillus anthracis
# S. pneumoniae 157E [5] = assay: animal or person; assay type: in vivo, mice; conditions: Streptococcus pneumoniae, 157E, in Mus musculus, 48 h, read-out: % survival; for responders at 5 mg/kg: sc
# S. pneumoniae PBS1339 = system: S. pneumoniae PBS1339; set-up: species or system mice; conditions: mouse, in vivo
# S. pneumoniae 700905 [6] = system: S. pneumoniae 700905; set-up: species or system mice; conditions: mouse, in vivo
# S. pneumoniae 157E [7] = system: S. pneumoniae 157E; set-up: species or system mice; conditions: mouse, in vivo
# 16S rRNA = conditions: cited from earlier work
# B. cereus 98/2620 = assay: microbe, parasite or virus in culture; assay type: cell-based; conditions: Bacillus cereus
# B. cereus 97/4144 = assay: microbe, parasite or virus in culture; assay type: cell-based; conditions: Bacillus cereus
# B. cereus 98/2658 = assay: microbe, parasite or virus in culture; assay type: cell-based; conditions: Bacillus cereus
# B. cereus 95/3032 = assay: microbe, parasite or virus in culture; assay type: cell-based; conditions: Bacillus cereus
# S. aureus RN4250 = assay: microbe, parasite or virus in culture; assay type: cell-based; conditions: for MIC: Staphylococcus aureus, RN4250
Structure (SMILES),IC50 [1] [µg/mL],IC90 [1] [µg/mL],MIC (S. pneumoniae 700905 [2]) [µg/mL],MIC (S. pneumoniae 157E [3]) [µg/mL],MIC (S. aureus RN450) [µg/mL],IC50 [4] [µg/mL],IC90 [4] [µg/mL],MIC (S. aureus MRSA5) [µg/mL],MIC (E. faecium 494) [µg/mL],MIC (E. faecalis 29212) [µg/mL],MIC (B. cereus 98/2620) [µg/mL],MIC (B. cereus 97/4144) [µg/mL],MIC (B. cereus 98/2658) [µg/mL],MIC (B. cereus 95/3032) [µg/mL],further results
Cc1c2c(c(O)c3c(O)ccc(Cl)c13)C(=O)C1(O)C(=O)C(C(N)=O)=C(O)C(N(C)C)C1C2 (stereo not drawn) [4-epi-anhydrochlorotet],,,,,,,,,,,,,,,inhibition of protein synthesis in words (protein synthesis): weak effects
CN(C)[C@@H]1C(O)=C(C(N)=O)C(=O)[C@@]2(O)C(O)=C3C(=O)c4c(O)ccc(C#Cc5ccc(N)cc5)c4C[C@H]3C[C@@H]12 [AA],3.8,23,1,0.5,1,0.14,1.4,0.5,,,,,,,effect on peptidoglycan biosynthesis in words [1]: affect peptidoglycan biosynthesis; macromolecular synthesis profile in words [4]: profile similar to class I compounds
CN(C)[C@@H]1C(O)=C(C(N)=O)C(=O)[C@@]2(O)C(O)=C3C(=O)c4c(O)ccc(-c5ccc(CO)cc5)c4C[C@H]3C[C@@H]12 [AB],18.3,> 32,4,0.06,0.06,0.19,1.8,1,,,,,,,
CN(C)[C@@H]1C(O)=C(C(N)=O)C(=O)[C@@]2(O)C(O)=C3C(=O)c4c(O)ccc(-c5ccc(NC(=O)c6ccno6)cc5)c4C[C@H]3C[C@@H]12 [AE],6,> 32,1,0.13,0.06,0.07,0.62,0.5,,,,,,,
CC(C)c1cc(CN2CC=CCC2)c(O)c2c1C[C@H]1C[C@H]3[C@H](N(C)C)C(O)=C(C(N)=O)C(=O)[C@@]3(O)C(O)=C1C2=O [AF],,,0.06,,,,,0.13,0.25,0.13,,,,,Tox50 (CHO-K1): >100 µg/mL; MIC (B. anthracis V770): 0.06 µg/mL; MIC (B. anthracis Ame): < 0.03 µg/mL; Tox50 (COS-1): >100 µg/mL; MIC (B. anthracis Sterne): < 0.03 µg/mL; MIC (B. anthracis Vollum1B): < 0.03 µg/mL
CN(C)c1cc(CN2Cc3ccccc3C2)c(O)c2c1C[C@H]1C[C@H]3[C@H](N(C)C)C(O)=C(C(N)=O)C(=O)[C@@]3(O)C(O)=C1C2=O [AI],,,0.06,,,,,0.5,0.5,0.5,,,,,Tox50 (CHO-K1): >100 µg/mL; MIC (B. anthracis V770): 0.12 µg/mL; MIC (B. anthracis Ame): 0.06 µg/mL; Tox50 (COS-1): >100 µg/mL; responders at 10 mg/kg (S. pneumoniae 157E [5]; po): 0%; responders at 5 mg/kg (S. pneumoniae 157E [5]): 40%; MIC (B. anthracis Sterne): < 0.03 µg/mL; MIC (B. anthracis Vollum1B): < 0.03 µg/mL
CN(C)c1cc(CN2CCC3CCCCC3C2)c(O)c2c1C[C@H]1C[C@H]3[C@H](N(C)C)C(O)=C(C(N)=O)C(=O)[C@@]3(O)C(O)=C1C2=O (stereo partly shown) [AJ],,,0.06,,,,,0.5,0.5,0.5,,,,,Tox50 (CHO-K1): >100 µg/mL; MIC (B. anthracis V770): < 0.03 µg/mL; MIC (B. anthracis Ame): < 0.03 µg/mL; Tox50 (COS-1): >100 µg/mL; responders at 50 mg/kg (S. pneumoniae 157E [5]; po): 80%; responders at 5 mg/kg (S. pneumoniae 157E [5]): 100%; MIC (B. anthracis Sterne): < 0.03 µg/mL; MIC (B. anthracis Vollum1B): < 0.03 µg/mL
CN(CCCc1cc(N(C)C)c2c(c1O)C(=O)C1=C(O)[C@]3(O)C(=O)C(C(N)=O)=C(O)[C@@H](N(C)C)[C@@H]3C[C@@H]1C2)Cc1ccccc1 [AK],,,0.5,0.5,1,,,2,,,,,,,
COc1ccc(-c2cc(CNC(C)CF)c(O)c3c2C[C@H]2C[C@H]4[C@H](N(C)C)C(O)=C(C(N)=O)C(=O)[C@@]4(O)C(O)=C2C3=O)cn1 (stereo partly shown) [AM],,,0.06,,,,,0.25,0.25,0.13,,,,,Tox50 (CHO-K1): 92.85 µg/mL; MIC (B. anthracis V770): 0.12 µg/mL; MIC (B. anthracis Ame): 0.06 µg/mL; Tox50 (COS-1): >100 µg/mL; responders at 50 mg/kg (S. pneumoniae 157E [5]; po): 0%; responders at 5 mg/kg (S. pneumoniae 157E [5]): 100%; MIC (B. anthracis Sterne): 0.06 µg/mL; MIC (B. anthracis Vollum1B): 0.06 µg/mL
"CC1(C)S[C@@H]2[C@H](NC(=O)[C@H](N)c3ccccc3)C(=O)N2[C@H]1C(=O)O [Ampicillin, reference compound]",,,,,,,,,,,,,,,PD50 (S. pneumoniae PBS1339; po): 3.2 mg/kg; PD50 (S. pneumoniae 700905 [6]; iv): 43.7 mg/kg; PD50 (S. pneumoniae 700905 [6]; po): >50 mg/kg; PD50 (S. pneumoniae 157E [7]; iv): 0.6 mg/kg; PD50 (S. pneumoniae 157E [7]; po): 1.1 mg/kg
"Cc1c2c(c(O)c3c(O)cccc13)C(=O)[C@]1(O)C(=O)C(C(N)=O)=C(O)[C@@H](N(C)C)[C@@H]1C2 [Anhydro-tetracycline, anhydrotetracycline, reference compound]",19.2,> 32,,,2,< 0.03,< 0.03,,,,,,,,inhibition of protein synthesis in words (protein synthesis): weak effects; effect on reactivity of nucleotides within the 16S rRNA (chemical footprint) (16S rRNA): A similar effect was not seen
CO/N=C(\C(=O)N[C@@H]1C(=O)N2C(C(=O)O)=C(COC(C)=O)CS[C@H]12)c1csc(N)n1 [Cefotaxime],,,,,,,,,,,64,32,> 64,> 64,
"O=C(O)c1cn(C2CC2)c2cc(N3CCNCC3)c(F)cc2c1=O [Ciprofloxacin, reference compound]",,,,,,,,,,,,,,,MIC (B. anthracis V770): 0.12 µg/mL; PD50 (S. pneumoniae 700905 [6]; po): >50 mg/kg; MIC (B. anthracis Ame): 0.25 µg/mL; PD50 (S. pneumoniae 157E [7]; iv): >50 mg/kg; MIC (B. anthracis Sterne): 0.25 µg/mL; MIC (B. anthracis Vollum1B): 0.25 µg/mL
CCC[C@@H]1C[C@@H](C(=O)N[C@@H]([C@H]2O[C@H](SC)[C@H](O)[C@@H](O)[C@H]2O)[C@H](C)Cl)N(C)C1 [Clindamycin],,,,,,,,,,,0.25,0.5,0.5,0.5,
CC[C@H]1OC(=O)[C@H](C)[C@@H](O[C@H]2C[C@@](C)(OC)[C@@H](O)[C@H](C)O2)[C@H](C)[C@@H](O[C@@H]2O[C@H](C)C[C@H](N(C)C)[C@H]2O)[C@](C)(O)C[C@@H](C)C(=O)[C@H](C)[C@@H](O)[C@]1(C)O [Erythromycin],,,,,,,,,,,0.06,0.125,1,0.125,
"CN(C)c1ccc(O)c2c1C[C@H]1C[C@H]3[C@H](N(C)C)C(O)=C(C(N)=O)C(=O)[C@@]3(O)C(O)=C1C2=O [Minocycline, reference compound]",4.6,20.9,8,0.06,0.25,< 0.03,0.1,2,16,4,0.5,0.5,≤ 0.06,≤ 0.06,PD50 (S. pneumoniae PBS1339; iv): 4.5 mg/kg; PD50 (S. pneumoniae PBS1339; po): 3.6 mg/kg; PD50 (S. pneumoniae 700905 [6]; iv): >50 mg/kg; PD50 (S. pneumoniae 700905 [6]; po): >50 mg/kg; inhibition of protein synthesis in words (protein synthesis): potent inhibitors of protein synthesis; susceptibility in words (S. aureus RN4250): susceptible; MIC (S. aureus RN4250): 0.5 µg/mL; effect on reactivity of nucleotides within the 16S rRNA (chemical footprint) (16S rRNA): affect the reactivity of nucleotides; PD50 (S. pneumoniae 157E [7]; iv): 0.53 mg/kg; PD50 (S. pneumoniae 157E [7]; po): 1.5 mg/kg
"CN(C)C1C(O)=C(C(N)=O)C(=O)C2(O)C(O)=C3C(=O)c4c(O)cccc4C(C)(O)C3CC12 (stereo not shown) [Tetracycline, reference compound]",> 32,> 32,32,0.06,0.06,< 0.03,0.11,32,64,16,32,64,≤ 0.06,≤ 0.06,inhibition of protein synthesis in words (protein synthesis): potent inhibitors of protein synthesis; susceptibility in words (S. aureus RN4250): resistant; MIC (S. aureus RN4250): 64 µg/mL; effect on reactivity of nucleotides within the 16S rRNA (chemical footprint) (16S rRNA): affect the reactivity of nucleotides
"CN(C)c1cc(NC(=O)CNC(C)(C)C)c(O)c2c1C[C@H]1C[C@H]3[C@H](N(C)C)C(O)=C(C(N)=O)C(=O)[C@@]3(O)C(O)=C1C2=O [Tigecycline, reference compound]",> 32,> 32,,,2,0.12,0.68,,,,,,,,effect on reactivity of nucleotides within the 16S rRNA (chemical footprint) (16S rRNA): chemical footprint similar to that of tetracycline; macromolecular synthesis profile in words [4]: profile similar to class I compounds
CN[C@H](CC(C)C)C(=O)N[C@H]1C(=O)N[C@@H](CC(N)=O)C(=O)N[C@H]2C(=O)N[C@H]3C(=O)N[C@H](C(=O)N[C@H](C(=O)O)c4cc(O)cc(O)c4-c4cc3ccc4O)[C@H](O)c3ccc(c(Cl)c3)Oc3cc2cc(c3O[C@@H]2O[C@H](CO)[C@@H](O)[C@H](O)[C@H]2O[C@H]2C[C@](C)(N)[C@H](O)[C@H](C)O2)Oc2ccc(cc2Cl)[C@H]1O [Vancomycin],,,,,,,,,,,1,1,2,1,
